Data from patent publication US20230107642A1 (Erasca, Inc., priority 2020, published 2023).

Molecular target: T1, Cys12 of the KRAS 4B G12C protein (Homo sapiens, UniProt P01116, G12C)
T1 construct: This protein contained 188 amino acids in total, including an N-terminal 6-Histidine tag; made in house; host or cells: E. coli BL21
Test: In vitro covalent adduct formation (CAF) assay, LC-MS intact mass
Type: binding
Details: for % CAF 10 uM @ 60 min: 10 uM compound; for CAF (% after 1 hour): 10 μM compound
In short: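 Percent covalent modification from intact-mass LC-MS, by relative free versus adducted protein (adducts within 1 Da of expected mass). Reaction: 10 μM compound with 5 μM E. coli-expressed, GDP-exchanged KRAS 4B G12C in TBS pH 7.4, 4% DMSO, 1 h at 22° C.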

CAF (% binding after 60 min) [%] | % CAF 10 uM @ 60 min (60 min) [%] | SMILES | other results
97 | – | C=CC(=O)N1[C@H](C)CN(c2nc(=O)n3c4c(c(-c5ccc(F)cc5)c(C(F)(F)F)cc24)SC[C@H](OCCOC)C3)C[C@@H]1C [Example 1024, (R)-8-((3S,5R)-4-acryloyl-3,5-dimethylpiperazin-1-yl)-11-(4-fluorophenyl)-3-(2-methoxyethoxy)-10-(trifluoromethyl)-3,4-dihydro-2H,6H-[1,4]thiazepino[2,3,4-ij]quinazolin-6-one] | –
97 | – | C=CC(=O)N1CCN(c2nc(=O)n3c4c(c(-c5ccc(F)cc5)c(C(F)(F)F)cc24)SC[C@@H](OC)C3)CC1 [Example 1038, (S)-8-(4-acryloylpiperazin-1-yl)-11-(4-fluorophenyl)-3-methoxy-10-(trifluoromethyl)-3,4-dihydro-2H,6H-[1,4]thiazepino[2,3,4-ij]quinazolin-6-one] | –
96 | – | C=CC(=O)N1[C@H](C)CN(c2nc(=O)n3c4c(c(-c5ccc(F)cc5F)c(C(F)(F)F)cc24)SC[C@@H](OCCOC)C3)C[C@@H]1C [Example 1027, (3S)-8-((3S,5R)-4-acryloyl-3,5-dimethylpiperazin-1-yl)-11-(2,4-difluorophenyl)-3-(2-methoxyethoxy)-10-(trifluoromethyl)-3,4-dihydro-2H,6H-[1,4]thiazepino[2,3,4-ij]quinazolin-6-one 3,4-dihydro-2H,6H-[1,4]thiazepino[2,3,4-ij]quinazolin-6-one] | –
– | 98 | C=CC(=O)N1CCN(c2nc(=O)n3c4c(c(-c5cc(Cl)c(F)cc5F)c(C(F)(F)F)cc24)SC[C@@H]3COCOC)CC1 (atropisomer, axis not shown) [Example 1364] | –
– | 69.7 | C=CC(=O)N1C[C@H](C)N(c2nc(=O)n3c4c(c(-c5cc(Cl)c(F)cc5F)c(C(F)(F)F)cc24)SC[C@@H]3CN2CCN(C3CC3)CC2)C[C@H]1C [Example 1307, (3S)-7-((2S,5R)-4-acryloyl-2,5-dimethylpiperazin-1-yl)-10-(5-chloro-2,4-difluorophenyl)-3-((4-cyclopropylpiperazin-1-yl)methyl)-9-(trifluoromethyl)-2,3-dihydro-5H-[1,4]thiazino[2,3,4-ij]quinazolin-5-one] | –
95 | – | C=CC(=O)N1[C@H](C)CN(c2nc(=O)n3c4c(c(-c5ccc(F)cc5F)c(C(F)(F)F)cc24)SC[C@H](OCCOC)C3)C[C@@H]1C [Example 1026, (3R)-8-((3S,5R)-4-acryloyl-3,5-dimethylpiperazin-1-yl)-11-(2,4-difluorophenyl)-3-(2-methoxyethoxy)-10-(trifluoromethyl)-3,4-dihydro-2H,6H-[1,4]thiazepino[2,3,4-ij]quinazolin-6-one] | –
– | 96.4 | C=CC(=O)N1[C@H](C)CN(c2nc(=O)n3c4c(c(-c5ccc(F)c(Cl)c5)c(C(F)(F)F)cc24)SCC2(COC2)C3)C[C@@H]1C [Example 1353, 8′-((3S,5R)-4-acryloyl-3,5-dimethylpiperazin-1-yl)-11′-(3-chloro-4-fluorophenyl)-10′-(trifluoromethyl)-2′H,4′H,6′H-spiro[oxetane-3,3′-[1,4]thiazepino[2,3,4-ij]quinazolin]-6′-one] | –
95 | – | C=CC(=O)N1[C@H](C)CN(c2nc(=O)n3c4c(c(-c5cc(Cl)c(F)cc5F)c(C(F)(F)F)cc24)SC[C@@H](OCCOC)C3)C[C@@H]1C [Example 1031, (3S)-8-((3S,5R)-4-acryloyl-3,5-dimethylpiperazin-1-yl)-11-(5-chloro-2,4-difluorophenyl)-3-(2-methoxyethoxy)-10-(trifluoromethyl)-3,4-dihydro-2H,6H-[1,4]thiazepino[2,3,4-ij]quinazolin-6-one] | –
– | 96.7 | C=CC(=O)N1CCN(c2nc(=O)n3c4c(c(-c5cc(Cl)c(F)cc5F)c(C(F)(F)F)cc24)SC[C@@H]3CN2CCN(CC)CC2)CC1 (atropisomer, axis not shown) [Example 1337, (3S,10S)-7-(4-acryloylpiperazin-1-yl)-10-(5-chloro-2,4-difluorophenyl)-3-((4-ethylpiperazin-1-yl)methyl)-9-(trifluoromethyl)-2,3-dihydro-5H-[1,4]thiazino[2,3,4-ij]quinazolin-5-one] | –
– | – | C=C(F)C(=O)N1[C@H](C)CN(c2nc(=O)n3c4c(c(-c5ccc(F)cc5F)c(C(F)(F)F)cc24)SC[C@@H](OC)C3)C[C@@H]1C [Example 1220, (3S)-11-(2,4-Difluorophenyl)-8-((3S,5R)-4-(2-fluoroacryloyl)-3,5-dimethylpiperazin-1-yl)-3-methoxy-10-(trifluoromethyl)-3,4-dihydro-2H,6H-[1,4]thiazepino[2,3,4-ij]quinazolin-6-one] | CAF (% after 1 hour): 67%
– | – | C=CC(=O)N1[C@H](C)CN(c2nc(=O)n3c4c(c(-c5cc(Cl)c(F)cc5F)c(C(F)(F)F)cc24)SC[C@@H](N2CCOCC2)C3)C[C@@H]1C (atropisomer, axis not shown) [Example 1135, (3S,11S)-8-((3S,5R)-4-acryloyl-3,5-dimethylpiperazin-1-yl)-11-(5-chloro-2,4-difluorophenyl)-3-morpholino-10-(trifluoromethyl)-3,4-dihydro-2H,6H-[1,4]thiazepino [2,3,4-ij]quinazolin-6-one] | % CAF 10 uM @ 60 min (60 min incubation): 72.7%
96 | – | C=CC(=O)N1[C@H](C)CN(c2nc(=O)n3c4c(c(-c5ccc(F)c(Cl)c5)c(C(F)(F)F)cc24)SC[C@@H](OCOC)C3)C[C@@H]1C [Example 1014, (S)-8-((3S,5R)-4-acryloyl-3,5-dimethylpiperazin-1-yl)-11-(3-chloro-4-fluorophenyl)-3-(methoxymethoxy)-10-(trifluoromethyl)-3,4-dihydro-2H,6H-[1,4]thiazepino[2,3,4-ij]quinazolin-6-one] | –
– | 92.7 | C=CC(=O)N1[C@H](C)CN(c2nc(=O)n3c4c(c(-c5ccc(F)cc5)c(C(F)(F)F)cc24)SC[C@@H](COC)C3)C[C@@H]1C [Example 1407, (R)-8-((3S,5R)-4-acryloyl-3,5-dimethylpiperazin-1-yl)-11-(4-fluorophenyl)-3-(methoxymethyl)-10-(trifluoromethyl)-3,4-dihydro-2H,6H-[1,4]thiazepino[2,3,4-ij]quinazolin-6-one] | –
– | – | C=C(F)C(=O)N1[C@H](C)CN(c2nc(=O)n3c4c(c(-c5cc(Cl)c(F)cc5F)c(C(F)(F)F)cc24)SC[C@@H](OC)C3)C[C@@H]1C [Example 1218, (3S)-11-(5-Chloro-2,4-difluorophenyl)-8-((3S,5R)-4-(2-fluoroacryloyl)-3,5-dimethylpiperazin-1-yl)-3-methoxy-10-(trifluoromethyl)-3,4-dihydro-2H,6H-[1,4]thiazepino[2,3,4-ij]quinazolin-6-one] | CAF (% after 1 hour): 66%
– | – | C=CC(=O)N1[C@H](C)CN(c2nc(=O)n3c4c(c(-c5cc(Cl)c(F)cc5F)c(C(F)(F)F)cc24)SC[C@@H](N2CCCC2)C3)C[C@@H]1C (atropisomer, axis not shown) [Example 1138, (3S,11S)-8-((3S,5R)-4-acryloyl-3,5-dimethylpiperazin-1-yl)-11-(5-chloro-2,4-difluorophenyl)-3-(pyrrolidin-1-yl)-10-(trifluoromethyl)-3,4-dihydro-2H,6H-[1,4]thiazepino [2,3,4-ij]quinazolin-6-one] | % CAF 10 uM @ 60 min (60 min incubation): 50.5%
96 | – | C=CC(=O)N1CCN(c2nc(=O)n3c4c(c(-c5ccc(F)cc5)c(C(F)(F)F)cc24)SC[C@H](OC)C3)CC1 [Example 1037, (R)-8-(4-acryloylpiperazin-1-yl)-11-(4-fluorophenyl)-3-methoxy-10-(trifluoromethyl)-3,4-dihydro-2H,6H-[1,4]thiazepino[2,3,4-ij]quinazolin-6-one] | –
– | 44.2 | C=CC(=O)N1[C@H](C)CN(c2nc(=O)n3c4c(c(-c5ccc(F)cc5)c(C(F)(F)F)cc24)SC[C@@H](CO)C3)C[C@@H]1C [Example 1398, (R)-8-((3S,5R)-4-acryloyl-3,5-dimethylpiperazin-1-yl)-11-(4-fluorophenyl)-3-(hydroxymethyl)-10-(trifluoromethyl)-3,4-dihydro-2H,6H-[1,4]thiazepino[2,3,4-ij]quinazolin-6-one] | –
– | – | C=CC(=O)N1[C@H](C)CN(c2nc(=O)n3c4c(c(-c5cc(Cl)c(F)cc5F)c(C(F)(F)F)cc24)SC[C@H](N2CCOCC2)C3)C[C@@H]1C (atropisomer, axis not shown) [Example 1115, (3R,11S)-8-((3S,5R)-4-acryloyl-3,5-dimethylpiperazin-1-yl)-11-(5-chloro-2,4-difluorophenyl)-3-morpholino-10-(trifluoromethyl)-3,4-dihydro-2H,6H-[1,4]thiazepino [2,3,4-ij]quinazolin-6-one] | % CAF 10 uM @ 60 min (60 min incubation): 42.5%
– | 96 | C=CC(=O)N1[C@H](C)CN(c2nc(=O)n3c4c(c(-c5ccc(F)c(OC(F)F)c5)c(Cl)cc24)SC[C@@H]3COC)C[C@@H]1C [Example 1343, (S)-7-((3S,5R)-4-acryloyl-3,5-dimethylpiperazin-1-yl)-9-chloro-10-(3-(difluoromethoxy)-4-fluorophenyl)-3-(methoxymethyl)-2,3-dihydro-5H-[1,4]thiazino[2,3,4-ij]quinazolin-5-one] | –
– | 95.4 | [2H]C([2H])([2H])OC[C@H]1CSc2c(-c3ccc(F)cc3F)c(C(F)(F)F)cc3c(N4C[C@@H](C)N(C(=O)C=C)[C@@H](C)C4)nc(=O)n1c23 (atropisomer, axis not shown) [Example 1424, (3S,10S)-7-((3S,5R)-4-acryloyl-3,5-dimethylpiperazin-1-yl)-10-(2,4-difluorophenyl)-3-((methoxy-d3)methyl)-9-(trifluoromethyl)-2,3-dihydro-5H-[1,4]thiazino[2,3,4-ij]quinazolin-5-one] | –
